Assay results taken from patent publication US20260042764A1, “COMPOSITIONS AND METHODS FOR INHIBITION OF KRAS” (TheRas, Inc., priority 2022, published 2026).

What was measured:
[1] = molecular target: T1, Avi-KRAS G12D (1-169) GppNHp/RAF1 RBD-3xFLAG (52-151) (Homo sapiens, UniProt P01116, G12D); experiment: Raf1-KRAS G12D-GppNHP disruption HTRF assay (Biological Example 1); type: binding
T1 construct: Avi-KRAS G12D (1-169)
Outline: (§1)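 First, protein mix in Tris pH 7.5 buffer with NaCl, MgCl2, BSA, Tween and 10% DMSO is incubated 1 h at room temperature. Next, reagent mix is added and incubated a further 1 h at room temperature. Finally, HTRF is read and activity normalized to DMSO.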

[2] = molecular target: T2, Avi-KRAS G12R (1-169) GppNHp/RAF1 RBD-3xFLAG (52-151) (Homo sapiens, UniProt P01116, G12R); experiment: Raf1-KRAS G12R-GppNHP disruption HTRF assay (Biological Example 1); type: binding
T2 construct: Avi-KRAS G12R (1-169)
Outline: as §1

GP2d cells (KRAS G12D) = experiment: Cell-based pERK HTRF assay in GP2d cell (Biological Example 2); details: GP2d (KRAS G12D) cells
Outline: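 HTRF read-out of pERK (excitation 320 nm, emission 615 nm) after lysates sat 4–24 h at room temperature with Eu cryptate and d2 antibodies.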

[3] = molecular target: T3, Avi-KRAS WT (2-169) GTP/RAF1 RBD-3xFLAG (51-131) (Homo sapiens, UniProt P01116); experiment: Raf1-KRAS WT-GTP disruption HTRF assay (Biological Example 3); type: binding; details: KRAS WT, GTP-loaded
T3 construct: Avi-KRAS WT (2-169)
Outline: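 HTRF PPI read-out (ex 320 nm, em 615 nm) after 1 h RT incubation with shaking; data as % activity vs DMSO (100%), IC50 from curve fit. Complex 50 nM, RBD reagent 75 nM; compound 30-0.005 μM, 3-fold.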

[4] = KRAS G12D, GppNHp-loaded, class symbols
[5] = KRAS G12R, GppNHp-loaded, class symbols
[6] = KRAS G12D, GppNHp-loaded, Table 11
[7] = KRAS G12R, GppNHp-loaded, Table 11

T1 sequence (P01116 1-169 isoform P01116-2 G12D): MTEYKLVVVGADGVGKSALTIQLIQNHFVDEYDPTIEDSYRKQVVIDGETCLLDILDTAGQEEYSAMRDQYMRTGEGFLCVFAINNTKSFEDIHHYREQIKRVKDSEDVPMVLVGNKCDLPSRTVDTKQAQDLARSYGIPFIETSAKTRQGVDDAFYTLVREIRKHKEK
T3 sequence (P01116 2-169 isoform P01116-2): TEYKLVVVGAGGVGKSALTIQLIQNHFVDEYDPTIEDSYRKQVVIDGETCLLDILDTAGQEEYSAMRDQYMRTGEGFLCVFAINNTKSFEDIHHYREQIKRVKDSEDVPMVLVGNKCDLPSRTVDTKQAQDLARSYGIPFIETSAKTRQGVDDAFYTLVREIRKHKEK
T2 sequence (P01116 1-169 isoform P01116-2 G12R): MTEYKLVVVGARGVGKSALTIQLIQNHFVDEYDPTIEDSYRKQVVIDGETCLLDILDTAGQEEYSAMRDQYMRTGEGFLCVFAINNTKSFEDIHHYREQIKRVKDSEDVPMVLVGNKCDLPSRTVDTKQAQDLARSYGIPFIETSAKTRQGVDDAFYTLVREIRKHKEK

| SMILES | IC50 [1, 4] [µM] | IC50 [2, 5] [µM] | IC50 (GP2d cells (KRAS G12D); GP2d) [µM] | IC50 (GP2d cells (KRAS G12D); GP2d, pERK HTRF, class symbols) [µM] | IC50 [3] [µM] | IC50 [1, 6] [µM] | IC50 [2, 7] [µM] | IC50 (GP2d cells (KRAS G12D); pERK HTRF) [µM] | IC50 ([1]; KRAS G12D-GppNHp/RAF1 RBD HTRF) [µM] | IC50 ([2]; KRAS G12R-GppNHp/RAF1 RBD HTRF) [µM] | IC50 (GP2d cells (KRAS G12D); GP2d, pERK HTRF) [µM] | IC50 (GP2d cells (KRAS G12D)) [µM] |
| --- | --- | --- | --- | --- | --- | --- | --- | --- | --- | --- | --- | --- |
| N#Cc1c(N)sc2c(F)ccc(-c3c(C(F)(F)F)cc4c(N5CC6CC(C5)O6)nc(OC[C@@]56CCCN5C[C@H](F)C6)nc4c3F)c12 (single isomer, unassigned) [Compound 275] |  |  | < 0.1 |  | 0.1 to 1 | 0.1 to 1 | 0.1 to 1 | < 0.1 |  |  |  |  |
| CN(C)C(=O)c1cc2n(n1)CCN(c1nc(OC[C@@]34CCCN3C[C@H](F)C4)nc3c(F)c(-c4ccc(F)c5sc(N)c(C#N)c45)c(C(F)(F)F)cc13)C2 [Compound 355] |  |  | < 0.1 |  | 1 to 10 |  |  |  | 0.1 to 1 | 0.1 to 1 | < 0.1 |  |
| CC(=O)N1CC[C@H](N(c2nc(OC[C@@]34CCCN3C[C@H](F)C4)nc3c(F)c(-c4ccc(F)c5sc(N)c(C#N)c45)c(C(F)(F)F)cc23)C2CC2)C1 (atropisomer, axis not shown) [Compound 608] | < 0.1 | 0.1 to 1 | < 0.1 | < 0.1 | 1 to 10 |  |  |  |  |  |  |  |
| CCN1C[C@@H](N(C)c2nc(OC[C@@]34CCCN3C[C@H](F)C4)nc3c(F)c(-c4ccc(F)c5sc(N)c(C#N)c45)c(C(F)(F)F)cc23)CC1=O (atropisomer, axis not shown) [Compound 636] | < 0.1 | < 0.1 | < 0.1 | < 0.1 | 0.1 to 1 |  |  |  |  |  |  |  |
| N#Cc1c(N)sc2c(F)ccc(-c3c(C(F)(F)F)cc4c(N5CCOCC5)nc(OC[C@@]56CCCN5C[C@H](F)C6)nc4c3F)c12 (single isomer, unassigned) [Compound 198] |  |  | < 0.1 |  | 0.1 to 1 | 0.1 to 1 | 0.1 to 1 | < 0.1 |  |  |  |  |
| CCN(c1nc(OC[C@@]23CCCN2C[C@H](F)C3)nc2c(F)c(-c3ccc(F)c4sc(N)c(C#N)c34)c(C(F)(F)F)cc12)[C@H]1C[C@@H](C)N(C(=O)[C@H]2CCO2)C1 (atropisomer, axis not shown) [Compound 752] | < 0.1 | < 0.1 | < 0.1 | < 0.1 | 0.1 to 1 |  |  |  |  |  |  |  |
| CCN(c1nc(OC[C@@]23CCCN2C[C@H](F)C3)nc2c(F)c(-c3ccc(F)c4sc(N)c(C#N)c34)c(C(F)(F)F)cc12)[C@H]1CCN(C(=O)C2CC2)C1 [Compound 331] |  |  | < 0.1 |  | 0.1 to 1 |  |  |  | < 0.1 | < 0.1 | < 0.1 |  |
| CCN(c1nc(OC[C@]23CCCN2C[C@H](F)C3)nc2c(F)c(-c3ccc(F)c4sc(N)c(C#N)c34)c(C(F)(F)F)cc12)[C@H]1CCN(C(=O)C(C)C)C1 [Compound 705] | < 0.1 | < 0.1 | < 0.1 | < 0.1 | 0.1 to 1 |  |  |  |  |  |  |  |
| CCN(c1nc(OC[C@@H]2C[C@@H](OC)CN2C)nc2c(F)c(-c3ccc(F)c4sc(N)c(C#N)c34)c(C(F)(F)F)cc12)[C@H]1CCN(C(=O)C(C)C)C1 [Compound 706] | 0.1 to 1 | 0.1 to 1 | < 0.1 | < 0.1 | 1 to 10 |  |  |  |  |  |  |  |
| CCC(=O)N1CC[C@@H](N(C)c2nc(OC[C@@]34CCCN3C[C@H](F)C4)nc3c(F)c(-c4ccc(F)c5sc(N)c(C#N)c45)c(C(F)(F)F)cc23)[C@H]1C (atropisomer, axis not shown) [Compound 335] |  |  | < 0.1 |  | 0.1 to 1 |  |  | < 0.1 | < 0.1 | < 0.1 |  |  |
| CCN(c1nc(OC[C@@]23CCCN2C[C@H](F)C3)nc2c(F)c(-c3ccc(F)c4sc(N)c(C#N)c34)c(C(F)(F)F)cc12)[C@H]1CCN(C(=O)C2CN(C(C)=O)C2)C1 (atropisomer, axis not shown) [Compound 638] | < 0.1 | < 0.1 | < 0.1 | < 0.1 | 0.1 to 1 |  |  |  |  |  |  |  |
| Cc1c(C(=O)N(C)C)nn2c1CN(c1nc(OC[C@@]34CCCN3C[C@H](F)C4)nc3c(F)c(-c4ccc(F)c5sc(N)c(C#N)c45)c(C(F)(F)F)cc13)CC2 (atropisomer, axis not shown; (aS)) [Compound 590, 5-((S)-7-(2-amino-3-cyano-7-fluorobenzo[b]thiophen-4-yl)-8-fluoro-2-(((2R,7aS)-2-fluorotetrahydro-1H-pyrrolizin-7a(5H)-yl)methoxy)-6-(trifluoromethyl)quinazolin-4-yl)-N,N,3-trimethyl-4,5,6,7-tetrahydropyrazolo[1,5-a]pyrazine-2-carboxamide] | < 0.1 | < 0.1 |  | < 0.1 | 0.1 to 1 |  |  |  |  |  |  | < 0.1 |
| N#Cc1c(N)sc2c(F)ccc(-c3c(C(F)(F)F)cc4c(N5CCCOCC5)nc(OC[C@@]56CCCN5C[C@H](F)C6)nc4c3F)c12 [Compound 232] |  |  | < 0.1 |  | 0.1 to 1 | < 0.1 | 0.1 to 1 |  |  |  | < 0.1 |  |

Other lines, results leading:

| IC50 [1, 4] [µM] | IC50 [2, 5] [µM] | IC50 (GP2d cells (KRAS G12D); GP2d) [µM] | IC50 (GP2d cells (KRAS G12D); GP2d, pERK HTRF, class symbols) [µM] | IC50 [3] [µM] | IC50 [1, 6] [µM] | IC50 [2, 7] [µM] | IC50 (GP2d cells (KRAS G12D); pERK HTRF) [µM] | IC50 ([1]; KRAS G12D-GppNHp/RAF1 RBD HTRF) [µM] | IC50 ([2]; KRAS G12R-GppNHp/RAF1 RBD HTRF) [µM] | IC50 (GP2d cells (KRAS G12D); GP2d, pERK HTRF) [µM] | IC50 (GP2d cells (KRAS G12D)) [µM] | SMILES |
| --- | --- | --- | --- | --- | --- | --- | --- | --- | --- | --- | --- | --- |
| < 0.1 | < 0.1 | < 0.1 | < 0.1 | 0.1 to 1 |  |  |  |  |  |  |  | CCN(c1nc(OC[C@@]23CCCN2C[C@H](F)C3)nc2c(F)c(-c3ccc(F)c4sc(N)c(C#N)c34)c(C(F)(F)F)cc12)[C@H]1CCN(C(=O)O[C@@H]2CCOC2)C1 (atropisomer, axis not shown) [Compound 683] |
| < 0.1 | < 0.1 | < 0.1 | < 0.1 | 0.1 to 1 |  |  |  |  |  |  |  | CCN(c1nc(OC[C@@]23CCCN2C[C@H](F)C3)nc2c(F)c(-c3ccc(F)c4sc(N)c(C#N)c34)c(C(F)(F)F)cc12)[C@H]1C[C@@H]2CN(C)C(=O)N2C1 (atropisomer, axis not shown) [Compound 605] |
| < 0.1 | < 0.1 | < 0.1 | < 0.1 | 0.1 to 1 |  |  |  |  |  |  |  | CC(=O)N1CC[C@H](N(CCF)c2nc(OC[C@@]34CCCN3C[C@H](F)C4)nc3c(F)c(-c4ccc(F)c5sc(N)c(C#N)c45)c(C(F)(F)F)cc23)C1 (atropisomer, axis not shown) [Compound 622] |
| < 0.1 | < 0.1 | < 0.1 | < 0.1 | ≤ 0.1 |  |  |  |  |  |  |  | CCN(c1nc(OC[C@@]23CCCN2C[C@H](F)C3)nc2c(F)c(-c3ccc(F)c4sc(N)c(C#N)c34)c(C(F)(F)F)cc12)[C@H]1CCN(C(=O)N2CC(OC)C2)C1 (atropisomer, axis not shown) [Compound 607] |
| < 0.1 | < 0.1 | < 0.1 | < 0.1 | 0.1 to 1 |  |  |  |  |  |  |  | CCN(c1nc(OC[C@@]23CCCN2C[C@H](F)C3)nc2c(F)c(-c3ccc(F)c4sc(N)c(C#N)c34)c(C(F)(F)F)cc12)[C@H]1CCN(C(=O)[C@@H]2CCO2)C1 (atropisomer, axis not shown) [Compound 603] |
| < 0.1 | < 0.1 | < 0.1 | < 0.1 | ≤ 0.1 |  |  |  |  |  |  |  | CCN(c1nc(OC[C@@]23CCCN2C[C@H](F)C3)nc2c(F)c(-c3ccc(F)c4sc(N)c(C#N)c34)c(C(F)(F)F)cc12)[C@H]1CCN(C(=O)[C@H]2CCO2)C1 (atropisomer, axis not shown) [Compound 577] |
| < 0.1 | < 0.1 | < 0.1 | < 0.1 | 0.1 to 1 |  |  |  |  |  |  |  | CCN(c1nc(OC[C@@]23CCCN2C[C@H](F)C3)nc2c(F)c(-c3ccc(F)c4sc(N)c(C#N)c34)c(C(F)(F)F)cc12)[C@H]1C[C@H](C)N(C(=O)N2CC(OC)C2)C1 (atropisomer, axis not shown) [Compound 764] |
|  |  | < 0.1 |  | 0.1 to 1 |  |  |  | 0.1 to 1 | 0.1 to 1 | < 0.1 |  | CCN(c1nc(OC[C@@]23CCCN2C[C@H](F)C3)nc2c(F)c(-c3ccc(F)c4sc(N)c(C#N)c34)c(C(F)(F)F)cc12)[C@@H]1CCN(C(=O)C(C)C)C1 [Compound 328] |
| < 0.1 | < 0.1 | < 0.1 | < 0.1 | ≤ 0.1 |  |  |  |  |  |  |  | CCN(c1nc(OC[C@@]23CCCN2C[C@H](F)C3)nc2c(F)c(-c3ccc(F)c4sc(N)c(C#N)c34)c(C(F)(F)F)cc12)[C@H]1CC(=O)N2CCC[C@@H]12 (atropisomer, axis not shown; (aS)) [Compound 697, 2-amino-4-((S)-4-(ethyl((1S,7aS)-3-oxohexahydro-1H-pyrrolizin-1-yl)amino)-8-fluoro-2-(((2R,7aS)-2-fluorotetrahydro-1H-pyrrolizin-7a(5H)-yl)methoxy)-6-(trifluoromethyl)quinazolin-7-yl)-7-fluorobenzo[b]thiophene-3-carbonitrile] |
